What was measured:
3T3 L1 fibroblasts = experiment: Glucose transport activity (14C-2-deoxy-D-glucose uptake); format: cell-based; conditions: Mus musculus; differentiated 3T3 L1 cells, insulin 5.6 nM; concentration giving increase in glucose transport generally 150% of the vehicle control
Description: 3T3 L1 fibroblasts (ATCC) were grown in Dulbecco's modified Eagle's medium (DMEM) with 10% fetal bovine serum (FBS, medium). The cells were plated at a density of 3×10^4 cells/well in 24-well plates. Two days after confluence was reached, the cells were treated for 3 days with 0.5 mM isobutylmethylxanthine (IBMX), 1 μM dexamethasone, supplemented with 1.7 μM insulin. The cells were then transferred to medium with 1.7 μM insulin for 2 more days. The cells were maintained in medium for an additional 4 days. Finally the cells were serum starved overnight in 0.1% bovine serum albumin (BSA) in DMEM.
The following day, the culture medium was replaced with 150 mM NaCl, 1.7 mM KCl, 0.9 mM CaCl2, 1.47 mM K2HPO4 (pH 7.4) to which was added either the experimental compounds, or their vehicle (DMSO). Insulin or its vehicle (0.01% BSA) was diluted in the assay buffer (containing test compound or vehicle, respectively) to a final concentration of 5.6 nM. After incubation for 30 min at 37° C. 5 μCi/mL ^14C-2-[…]-D-glucose was added, and the incubation was continued for additional 30 min at 37° C. The cells were then washed 3 times with ice-cold PBS/20 mM glucose and […] in 250 μl of lysis buffer (50 mM HEPES pH 7.6, 1% Triton X-100) for 30 min at room temperature. Radioactivity in the lysate was quantified by scintillation counting.
Once ^14C-2-deoxy-D-glucose is transported into the cell it is not released. Glucose transport is, therefore, proportional to the amount of radioactivity in the lysate. The concentration of compound necessary to produce an increase in glucose transport greater than the sum of the standard deviation of the vehicle control plus the largest standard deviation of a test sample (generally 150% of the vehicle control) was recorded as the EC (effective concentration).

[1] = molecular target: T1, β-kinase domain of the human insulin receptor (CKD) (Homo sapiens, UniProt P06213); experiment: 32P-Cytoplasmic Kinase Domain (CKD) autophosphorylation assay; format: biochemical; conditions: 32P incorporated into CKD band, percentage of the vehicle (DMSO) level; 10 minutes at room temperature; compound concentration not given
T1 construct: The complete β-kinase domain of the human insulin receptor (CKD); made in house
Description: The complete β-kinase domain of the human insulin receptor (CKD) was expressed in, and purified from, baculovirus. CKD (4.0 μg/mL), in a solution of 50 mM Tris.HCl, 2 mM MnCl2, 10 mM MgCl2 (50 μl final volume), was combined with […] ATP, and 5 μCi ^32P-ATP (3000 Ci/mmol.). A test compound, or the vehicle (DMSO), was added to a final DMSO concentration of 1%. The mixture was incubated for 10 minutes at room temperature. The reaction was terminated by the addition of 10 μl of 200 mM EDTA. A 30 μl volume was removed, mixed with 5 μl of 6×Laemmeli sodium dodecyl sulfate (SDS) treatment buffer, and heated to 94° C. for 5 minutes. A 20 μl aliquot was then run on an SDS-PAGE gel. The radioactivity incorporated into the CKD band is quantified by phosphorimaging of the gel, or scintillation counting of the excised bands.
The potency of a compound for increasing phosphorylation is expressed as a percentage of the vehicle level.

T1 sequence (P06213 980-1382 limits assumed): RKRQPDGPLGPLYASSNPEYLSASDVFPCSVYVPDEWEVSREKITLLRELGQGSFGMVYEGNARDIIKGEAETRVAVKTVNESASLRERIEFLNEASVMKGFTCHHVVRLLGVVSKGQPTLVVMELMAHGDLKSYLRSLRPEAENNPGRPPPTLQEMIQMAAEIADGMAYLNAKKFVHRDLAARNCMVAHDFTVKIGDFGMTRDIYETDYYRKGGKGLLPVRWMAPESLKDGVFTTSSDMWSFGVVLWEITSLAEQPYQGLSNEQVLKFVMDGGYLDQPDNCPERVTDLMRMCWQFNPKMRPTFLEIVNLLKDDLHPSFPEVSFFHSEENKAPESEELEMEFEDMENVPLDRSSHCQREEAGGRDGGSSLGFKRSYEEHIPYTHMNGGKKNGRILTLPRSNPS

Row | Activity (% Control) [1] [% Control] | Structure (SMILES) | EC50 (3T3 L1 fibroblasts) [µM]
1 | 92.7 | O=C(Nc1cccc2cc(S(=O)(=O)O)ccc12)c1cc(NC(=O)c2ccccc2C(=O)O)cc(C(=O)Nc2cccc3cc(S(=O)(=O)O)ccc23)c1 [Compound 17, 2-(N-{3,5-bis[N-(6-sulfonaphthyl)carbamoyl]phenyl}carbamoyl)benzoic acid] | > 250
2 | 123.1 | O=C(Nc1cc(C(=O)Nc2cccc3cc(S(=O)(=O)O)ccc23)cc(C(=O)Nc2cccc3cc(S(=O)(=O)O)ccc23)c1)c1cccc(Cl)c1 [Compound 10, 5-({3-[(3-chlorophenyl)carbonylamino]-5-[N-(6-sulfonaphthyl)carbamoyl]phenyl}carbonylamino)naphthalene-2-sulfonic acid] | 20
3 | 75.9 | O=C(Nc1cc(C(=O)Nc2cccc3cc(S(=O)(=O)O)ccc23)cc(C(=O)Nc2cccc3cc(S(=O)(=O)O)ccc23)c1)c1ccccc1 [Compound 22, 5-({3-(phenylcarbonylamino)-5-[N-(6-sulfonaphthyl)carbamoyl]phenyl}carbonylamino)naphthalene-2-sulfonic acid] | 200
4 | 94 | O=C(Nc1cc(C(=O)Nc2cccc3cc(S(=O)(=O)O)ccc23)cc(C(=O)Nc2cccc3cc(S(=O)(=O)O)ccc23)c1)c1cccc(F)c1 [Compound 11, 5-({3-[(3-fluorophenyl)carbonylamino]-5-[N-(6-sulfonaphthyl)carbamoyl]phenyl}carbonylamino)naphthalene-2-sulfonic acid] | 20
5 | 89.6 | O=C(Nc1cc(C(=O)Nc2cccc3cc(S(=O)(=O)O)ccc23)cc(C(=O)Nc2cccc3cc(S(=O)(=O)O)ccc23)c1)c1ccc2ccccc2c1 [Compound 24, 5-({3-(2-naphthylcarbonylamino)-5-[N-(6-sulfonaphthyl)carbamoyl]phenyl}carbonylamino)naphthalene-2-sulfonic acid] | 
6 | 159.2 | O=C(O)c1ccc(C(=O)Nc2cc(C(=O)Nc3cccc4cc(S(=O)(=O)O)ccc34)cc(C(=O)Nc3cccc4cc(S(=O)(=O)O)ccc34)c2)cc1 [Compound 31, 4-(N-{3,5-bis[N-(6-sulfonaphthyl)carbamoyl]phenyl}carbamoyl)benzoic acid] | 
7 | 85.9 | COc1ccc(NC(=O)Nc2cc(C(=O)Nc3cccc4cc(S(=O)(=O)O)ccc34)cc(C(=O)Nc3cccc4cc(S(=O)(=O)O)ccc34)c2)cc1 [Compound 65, 5-[(3-{[(4-methoxyphenyl)amino]carbonylamino}-5-[N-(6-sulfonaphthyl)carbamoyl]phenyl)carbonylamino]naphthalene-2-sulfonic acid] | 
8 | 133.0 | O=C(Nc1cccc2cc(S(=O)(=O)O)ccc12)c1cc(NS(=O)(=O)c2ccc(F)cc2)cc(C(=O)Nc2cccc3cc(S(=O)(=O)O)ccc23)c1 [Compound 51, 5-[(3-{[(4-fluorophenyl)sulfonyl]amino}-5-[N-(6-sulfonaphthyl)carbamoyl]phenyl)carbonylamino]naphthalene-2-sulfonic acid] | 
9 | 84.1 | O=C(O)c1cccc(C(=O)Nc2cc(C(=O)Nc3cccc4cc(S(=O)(=O)O)ccc34)cc(C(=O)Nc3cccc4cc(S(=O)(=O)O)ccc34)c2)c1 [Compound 30, 3-(N-{3,5-bis[N-(6-sulfonaphthyl)carbamoyl]phenyl}carbamoyl)benzoic acid] | 
10 | 91.4 | N[C@@H](CC(=O)O)C(=O)Nc1cc(C(=O)Nc2cccc3cc(S(=O)(=O)O)ccc23)cc(C(=O)Nc2cccc3cc(S(=O)(=O)O)ccc23)c1 [Compound 26, (3S)-3-amino-3-(N-{3,5-bis[N-(6-sulfonaphthyl)carbamoyl]phenyl}carbamoyl)propanoic acid] | 
11 | 83.7 | O=C(Nc1cccc2cc(S(=O)(=O)O)ccc12)c1cc(NC(=O)c2cccc3ccccc23)cc(C(=O)Nc2cccc3cc(S(=O)(=O)O)ccc23)c1 [Compound 25, 5-({3-(1-naphthylcarbonylamino)-5-[N-(6-sulfonaphthyl)carbamoyl]phenyl}carbonylamino)naphthalene-2-sulfonic acid] | 
12 | 123.8 | O=C(Nc1cccc2cc(S(=O)(=O)O)ccc12)c1cc(NS(=O)(=O)c2ccc(Cl)cc2)cc(C(=O)Nc2cccc3cc(S(=O)(=O)O)ccc23)c1 [Compound 50, 5-[(3-{[(4-chlorophenyl)sulfonyl]amino}-5-[N-(6-sulfonaphthyl)carbamoyl]phenyl)carbonylamino]naphthalene-2-sulfonic acid] | 
13 | 102.4 | O=C(Nc1cccc2cc(S(=O)(=O)O)ccc12)c1cc(NS(=O)(=O)Cc2ccccc2)cc(C(=O)Nc2cccc3cc(S(=O)(=O)O)ccc23)c1 [Compound 56, 5-[(5-{[benzylsulfonyl]amino}-3-[N-(6-sulfonaphthyl)carbamoyl]phenyl)carbonylamino]naphthalene-2-sulfonic acid] | 
14 | 109.6 | O=C(Nc1cccc(Cl)c1)Nc1cc(C(=O)Nc2cccc3cc(S(=O)(=O)O)ccc23)cc(C(=O)Nc2cccc3cc(S(=O)(=O)O)ccc23)c1 [Compound 57, 5-[(3-{[(3-chlorophenyl)amino]carbonylamino}-5-[N-(6-sulfonaphthyl)carbamoyl]phenyl)carbonylamino]naphthalene-2-sulfonic acid] | 
15 | 136.6 | COc1ccc(CC(=O)Nc2cc(C(=O)Nc3cccc4cc(S(=O)(=O)O)ccc34)cc(C(=O)Nc3cccc4cc(S(=O)(=O)O)ccc34)c2)cc1 [Compound 41, 5-({3-[2-(4-methoxyphenyl)acetylamino]-5-[N-(6-sulfonaphthyl)carbamoyl]phenyl}carbonylamino)naphthalene-2-sulfonic acid] | 
16 | 109.9 | O=C(O)CCC(=O)Nc1cc(C(=O)Nc2cccc3cc(S(=O)(=O)O)ccc23)cc(C(=O)Nc2cccc3cc(S(=O)(=O)O)ccc23)c1 [Compound 32, 3-(N-{3,5-bis[N-(6-sulfonaphthyl)carbamoyl]phenyl}carbamoyl)propanoic acid] | 
17 | 88.6 | O=C(Nc1cc(C(=O)Nc2cccc3cc(S(=O)(=O)O)ccc23)cc(C(=O)Nc2cccc3cc(S(=O)(=O)O)ccc23)c1)c1ccc(F)cc1 [Compound 12, 5-({3-[(4-fluorophenyl)carbonylamino]-5-[N-(6-sulfonaphthyl)carbamoyl]phenyl}carbonylamino)naphthalene-2-sulfonic acid] | 
18 | 113.2 | O=C(Cc1ccccc1)Nc1cc(C(=O)Nc2cccc3cc(S(=O)(=O)O)ccc23)cc(C(=O)Nc2cccc3cc(S(=O)(=O)O)ccc23)c1 [Compound 37, 5-({3-(2-phenylacetylamino)-5-[N-(6-sulfonaphthyl)carbamoyl]phenyl}carbonylamino)naphthalene-2-sulfonic acid] | 
19 | 119.5 | O=C(Nc1cccc2cc(S(=O)(=O)O)ccc12)c1cc(NC(=O)c2ccco2)cc(C(=O)Nc2cccc3cc(S(=O)(=O)O)ccc23)c1 [Compound 34, 5-({3-(2-furylcarbonylamino)-5-[N-(6-sulfonaphthyl)carbamoyl]phenyl}carbonylamino)naphthalene-2-sulfonic acid] | 
20 | 161.2 | O=C(O)CC(C(=O)Nc1cc(C(=O)Nc2cccc3cc(S(=O)(=O)O)ccc23)cc(C(=O)Nc2cccc3cc(S(=O)(=O)O)ccc23)c1)c1ccccc1 (stereo not shown) [Compound 27, 3-(N-{3,5-bis[N-(6-sulfonaphthyl)carbamoyl]phenyl}carbamoyl)-3-phenylpropanoic acid] | 
21 | 115.5 | O=C(Nc1ccccc1)Nc1cc(C(=O)Nc2cccc3cc(S(=O)(=O)O)ccc23)cc(C(=O)Nc2cccc3cc(S(=O)(=O)O)ccc23)c1 [Compound 66, 5-({3-[(phenylamino)carbonylamino]-5-[N-(6-sulfonaphthyl)carbamoyl]phenyl}carbonylamino)naphthalene-2-sulfonic acid] | 

Source: patent US6653321B1, “Naphthylsulfonic acids and related compounds as glucose uptake agonists” (Telik, Inc., priority 1999, dated 2003)
